Article PMC6278313
Read-outs that look alike come from different tables or passages of the source.

Tests used:
[1] = target: 5-HT1B (Homo sapiens, UniProt P28222); experiment: NIMH-PDSP radioligand binding screen, 5-HT1B
[2] = system: benzodiazepine (BzP); experiment: NIMH-PDSP radioligand binding screen, benzodiazepine site; parameters: species or system rat; details: 10 μM
[3] = system: all tested receptors, transporters, and binding sites; experiment: NIMH-PDSP radioligand binding screen, whole panel; details: 10 μM; except the sites named for 17 and 27
[4] = system: human COX-2; details: cited from earlier work
[5] = target: DAT (dopamine transporter) (Homo sapiens, UniProt Q01959); experiment: NIMH-PDSP radioligand binding screen, DAT; details: read-out: inhibition of radioligand binding at DAT
Sequence of DAT (dopamine transporter) (Q01959 whole entry, species assumed): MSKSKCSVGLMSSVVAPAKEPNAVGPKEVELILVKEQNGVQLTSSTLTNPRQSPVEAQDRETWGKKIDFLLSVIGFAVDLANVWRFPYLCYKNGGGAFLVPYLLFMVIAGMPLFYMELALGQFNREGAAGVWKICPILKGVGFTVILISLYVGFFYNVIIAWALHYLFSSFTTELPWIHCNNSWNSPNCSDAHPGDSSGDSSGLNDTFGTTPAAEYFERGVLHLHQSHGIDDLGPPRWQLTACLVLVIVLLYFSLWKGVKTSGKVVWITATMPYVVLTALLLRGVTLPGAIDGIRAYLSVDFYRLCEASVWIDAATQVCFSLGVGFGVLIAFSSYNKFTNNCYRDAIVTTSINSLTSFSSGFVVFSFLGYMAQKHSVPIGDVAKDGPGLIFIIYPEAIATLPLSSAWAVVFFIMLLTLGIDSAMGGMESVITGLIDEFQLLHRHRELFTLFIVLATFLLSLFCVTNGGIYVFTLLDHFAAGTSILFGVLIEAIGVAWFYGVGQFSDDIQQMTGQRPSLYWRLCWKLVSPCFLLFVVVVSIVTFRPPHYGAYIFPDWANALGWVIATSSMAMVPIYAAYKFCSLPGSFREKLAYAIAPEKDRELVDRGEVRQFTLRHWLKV

[6] = target: T1, COX-1 (Homo sapiens, UniProt P23219); experiment: COX-1 inhibition, human whole blood (Thromboxane B2 EIA)
T1 sequence (P23219 24-599): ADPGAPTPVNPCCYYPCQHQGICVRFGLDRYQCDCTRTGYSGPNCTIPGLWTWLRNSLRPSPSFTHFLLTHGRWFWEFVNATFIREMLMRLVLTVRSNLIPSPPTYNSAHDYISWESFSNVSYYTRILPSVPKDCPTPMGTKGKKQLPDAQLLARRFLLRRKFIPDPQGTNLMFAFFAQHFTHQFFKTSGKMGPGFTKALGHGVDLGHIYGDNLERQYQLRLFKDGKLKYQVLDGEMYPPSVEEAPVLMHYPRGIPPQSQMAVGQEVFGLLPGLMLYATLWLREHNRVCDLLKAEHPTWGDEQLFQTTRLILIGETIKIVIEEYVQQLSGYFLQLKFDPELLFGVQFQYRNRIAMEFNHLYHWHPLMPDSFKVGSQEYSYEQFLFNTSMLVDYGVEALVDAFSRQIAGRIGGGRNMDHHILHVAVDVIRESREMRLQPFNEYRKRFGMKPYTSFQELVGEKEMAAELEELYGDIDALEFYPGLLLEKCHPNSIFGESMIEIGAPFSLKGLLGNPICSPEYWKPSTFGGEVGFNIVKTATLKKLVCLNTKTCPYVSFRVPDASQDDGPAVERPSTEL

[7] = target: T2, COX-1 (Macaca mulatta, UniProt F6S984); experiment: COX-1 inhibition, monkey whole blood (Thromboxane B2 EIA)
T2 sequence (F6S984 25-599): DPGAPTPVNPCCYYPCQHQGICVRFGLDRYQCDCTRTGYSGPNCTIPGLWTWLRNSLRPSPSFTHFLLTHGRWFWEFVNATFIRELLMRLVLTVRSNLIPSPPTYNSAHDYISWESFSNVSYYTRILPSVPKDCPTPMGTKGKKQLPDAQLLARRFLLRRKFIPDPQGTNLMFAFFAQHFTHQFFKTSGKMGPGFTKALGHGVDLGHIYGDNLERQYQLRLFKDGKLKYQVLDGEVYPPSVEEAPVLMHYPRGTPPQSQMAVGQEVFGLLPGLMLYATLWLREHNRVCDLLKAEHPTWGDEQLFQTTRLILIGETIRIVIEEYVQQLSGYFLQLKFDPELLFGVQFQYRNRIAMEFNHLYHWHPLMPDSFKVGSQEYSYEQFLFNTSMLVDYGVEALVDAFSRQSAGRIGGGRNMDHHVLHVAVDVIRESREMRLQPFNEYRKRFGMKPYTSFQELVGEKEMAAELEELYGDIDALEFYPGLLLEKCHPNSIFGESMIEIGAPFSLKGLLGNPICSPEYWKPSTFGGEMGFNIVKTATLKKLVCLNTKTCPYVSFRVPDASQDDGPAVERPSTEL

[8] = target: T3, COX-2 (Macaca mulatta, UniProt F7BWZ9); experiment: COX-2 inhibition, monkey whole blood (Prostaglandin E2 EIA)
T3 sequence (F7BWZ9 18-604): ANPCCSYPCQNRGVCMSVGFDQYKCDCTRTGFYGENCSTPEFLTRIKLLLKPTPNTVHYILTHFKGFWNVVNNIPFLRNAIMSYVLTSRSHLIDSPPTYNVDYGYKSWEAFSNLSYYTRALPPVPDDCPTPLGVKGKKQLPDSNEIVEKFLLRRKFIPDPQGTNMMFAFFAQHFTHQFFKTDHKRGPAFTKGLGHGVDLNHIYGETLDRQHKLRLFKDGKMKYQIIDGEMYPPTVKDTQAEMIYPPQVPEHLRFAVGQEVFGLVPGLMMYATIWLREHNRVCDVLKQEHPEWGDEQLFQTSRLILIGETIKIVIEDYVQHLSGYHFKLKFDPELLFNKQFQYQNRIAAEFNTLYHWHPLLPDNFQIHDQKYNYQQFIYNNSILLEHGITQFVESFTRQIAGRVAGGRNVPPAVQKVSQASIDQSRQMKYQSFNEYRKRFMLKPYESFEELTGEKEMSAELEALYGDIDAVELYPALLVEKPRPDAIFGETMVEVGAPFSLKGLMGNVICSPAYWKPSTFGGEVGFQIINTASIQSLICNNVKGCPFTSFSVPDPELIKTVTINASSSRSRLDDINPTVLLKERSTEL

[9] = target: T1, COX-1; parameters: endogenous in cells; host or cells: fresh human whole blood; details: footnote c; SE <15%; read-out: IC50 COX-1 Human WB (literature); cited from earlier work
[10] = target: COX-2; parameters: method as in literature cited in the text (18-30); details: Chart 1; ref literature cited in the text (18-30); cited from earlier work
[11] = Chart 1; cited from earlier work
[12] = system: COX-2; details: Chart 1; PET in vivo; ref literature cited in the text (18-30); cited from earlier work

Sequence of 5-HT1B (P28222 whole entry): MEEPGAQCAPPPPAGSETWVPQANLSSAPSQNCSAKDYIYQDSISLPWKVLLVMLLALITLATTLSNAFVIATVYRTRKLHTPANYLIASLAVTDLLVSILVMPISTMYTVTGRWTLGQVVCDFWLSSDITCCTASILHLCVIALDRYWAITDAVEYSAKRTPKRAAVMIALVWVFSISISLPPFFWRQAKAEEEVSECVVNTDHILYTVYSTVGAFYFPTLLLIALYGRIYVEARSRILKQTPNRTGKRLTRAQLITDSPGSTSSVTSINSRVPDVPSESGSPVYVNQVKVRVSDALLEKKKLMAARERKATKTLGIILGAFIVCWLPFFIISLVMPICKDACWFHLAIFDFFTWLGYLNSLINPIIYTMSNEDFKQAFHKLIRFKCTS

COc1cc(NCc2cccs2)nc(-c2ccc(S(C)(=O)=O)cc2)n1 [Compound 17, 6-Methoxy-2-(4-(methylsulfonyl)phenyl)-N-(thiophen-2-ylmethyl)pyrimidin-4-amine]
inhibition at 10 µM [1]: 50%
inhibition of radioligand binding at benzodiazepine (BzP) [2]: 50.6%
inhibition of radioligand binding at all tested receptors, transporters, and binding sites [3]: less than 50%
melting point: 139 to 141 °C
inhibition at 10 µM [5]: 53.7%
IC50 [6]: > 1000 nM
IC50 [7]: > 1000 nM
IC50 [8]: 2.58 ± 0.23 nM
IC50 [9]: > 8800 nM

CS(=O)(=O)c1ccc(-c2ccsc2-c2ccc([18F])cc2)cc1 [[^18F]9, [^18F]desbromo-DuP-697]
Ki [10]: 250 nM
logP [11]: 3.72
brain entry [12]: Brain penetrant

CS(=O)(=O)c1ccc(-c2cc(C(F)(F)F)nc(NCc3ccc([18F])cc3)n2)cc1 [[^18F]10, [^18F]pyricoxib]
logD [11]: 3.37
